“And” between values parts separate entries of the source, which are not always exact repeats. Equal values may be shown once.
T1: C. elegans APP-1 (X-prolyl aminopeptidase, aminopeptidase P1) (Caenorhabditis elegans, UniProt O44750)
T1 construct: full length (residues 1-616), N-terminal His-tag kept, pET19b, E. coli BL21 Star (DE3); homodimer, monomer 71977 Da by MS; two Zn2+ per monomer in crystal
T1 sequence (O44750 1-616): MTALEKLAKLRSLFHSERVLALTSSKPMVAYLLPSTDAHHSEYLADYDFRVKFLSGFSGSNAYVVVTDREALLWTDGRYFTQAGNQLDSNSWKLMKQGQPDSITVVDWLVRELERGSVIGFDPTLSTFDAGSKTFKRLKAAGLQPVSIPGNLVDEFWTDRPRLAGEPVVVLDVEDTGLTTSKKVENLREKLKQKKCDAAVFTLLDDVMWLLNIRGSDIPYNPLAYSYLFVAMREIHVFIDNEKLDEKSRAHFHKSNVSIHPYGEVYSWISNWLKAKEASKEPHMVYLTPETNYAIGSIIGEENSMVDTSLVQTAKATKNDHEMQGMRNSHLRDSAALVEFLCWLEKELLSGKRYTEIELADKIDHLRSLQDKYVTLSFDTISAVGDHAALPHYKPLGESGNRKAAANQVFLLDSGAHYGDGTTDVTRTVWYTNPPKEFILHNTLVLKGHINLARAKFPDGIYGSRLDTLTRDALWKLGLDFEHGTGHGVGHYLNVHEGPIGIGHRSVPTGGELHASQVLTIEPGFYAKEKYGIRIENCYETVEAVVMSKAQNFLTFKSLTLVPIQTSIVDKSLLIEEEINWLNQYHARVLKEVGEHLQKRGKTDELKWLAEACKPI


Columns and labels:
[1] = target: T1, C. elegans APP-1 (X-prolyl aminopeptidase, aminopeptidase P1); assay: HPLC assay of bradykinin cleavage ([…] nm); format: biochemical
[2] = target: the molecule itself; assay: AUC; sedimentation velocity; 0.3 mg/ml APP-1 dialysed against 10 mM Tris/HCl pH 7.5, 150 mM KCl; 40,000 rpm, 20 °C; Rayleigh interference and absorbance at 275 nm

| inhibition at 10 µM [1] | Molecule | stoichiometry N [2] |
| --- | --- | --- |
| 92% | C[C@H](NC(=O)[C@@H]1CCCN1C(=O)[C@@H]1CCCN1C(=O)[C@@H](O)[C@H](N)Cc1ccccc1)C(N)=O [apstatin] |  |
|  | Caenorhabditis elegans aminopeptidase P1 (APP-1), recombinant, His-tagged (enzyme, C. elegans, UniProt O44750 1-616, looked up, Aminopeptidase P1 (APP-1, X-prolyl aminopeptidase), C. elegans, cytosolic; cDNA amplified with primers from the start codon to the stop codon; residues 1-616 (N-terminal domain 1-163, middle domain 164-318, C-terminal domain 319-616); N-terminal His tag and linker come from pET19b and were not removed; Mass spectrometry fits the His-tagged protein after removal of the start methionine (calculated …)) MTALEKLAKLRSLFHSERVLALTSSKPMVAYLLPSTDAHHSEYLADYDFRVKFLSGFSGSNAYVVVTDREALLWTDGRYFTQAGNQLDSNSWKLMKQGQPDSITVVDWLVRELERGSVIGFDPTLSTFDAGSKTFKRLKAAGLQPVSIPGNLVDEFWTDRPRLAGEPVVVLDVEDTGLTTSKKVENLREKLKQKKCDAAVFTLLDDVMWLLNIRGSDIPYNPLAYSYLFVAMREIHVFIDNEKLDEKSRAHFHKSNVSIHPYGEVYSWISNWLKAKEASKEPHMVYLTPETNYAIGSIIGEENSMVDTSLVQTAKATKNDHEMQGMRNSHLRDSAALVEFLCWLEKELLSGKRYTEIELADKIDHLRSLQDKYVTLSFDTISAVGDHAALPHYKPLGESGNRKAAANQVFLLDSGAHYGDGTTDVTRTVWYTNPPKEFILHNTLVLKGHINLARAKFPDGIYGSRLDTLTRDALWKLGLDFEHGTGHGVGHYLNVHEGPIGIGHRSVPTGGELHASQVLTIEPGFYAKEKYGIRIENCYETVEAVVMSKAQNFLTFKSLTLVPIQTSIVDKSLLIEEEINWLNQYHARVLKEVGEHLQKRGKTDELKWLAEACKPI | 2 and 4 |

Reference: paper PMC4404410, “Crystal structure of X‐prolyl aminopeptidase fromCaenorhabditis elegans: A cytosolic enzyme with a di‐nuclear active site” (FEBS Open Bio, 2015)
